Assay results taken from ChEMBL document CHEMBL5727714, “Amino compounds for treatment of medical disorders” (2020).

Target: Complement factor D (Homo sapiens, UniProt P00746)
Experiment: Inhibition Assay: Human Factor D (purified from human serum, Complement Technology, Inc.) at 80 nM final concentration is incubated with test compound at various concentrations for 5 minutes at room temperature in 50 mM Tris, 1M NaCl, pH 7.5. A synthetic substrate Z-L-Lys-SBzl and DTNB (Ellman's reagent) are added to final concentrations of 100 Î¼M each. Absorbance at 405 nm (A405) is recorded at 30 second intervals for 30 minutes using a microplate spectrophotometer. IC50 values are calculated by nonlinear regression of complement Factor D reaction rates as a function of test compound concentration.

Sequence of Complement factor D (P00746 whole entry): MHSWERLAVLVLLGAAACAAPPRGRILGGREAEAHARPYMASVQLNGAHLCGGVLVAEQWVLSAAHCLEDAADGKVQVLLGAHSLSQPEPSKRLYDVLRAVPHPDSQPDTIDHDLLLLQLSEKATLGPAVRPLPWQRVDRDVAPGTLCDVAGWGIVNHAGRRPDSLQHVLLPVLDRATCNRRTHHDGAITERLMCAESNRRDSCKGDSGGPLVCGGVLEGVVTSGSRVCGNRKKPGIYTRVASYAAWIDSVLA

SMILES: CC(=O)c1cn(CC(=O)N2C[C@H](F)C[C@H]2C(=O)Nc2cccc(Cl)c2C(F)(F)F)c2ccc(Nc3cncnc3)cc12
- IC50: < 1000 nM
